In patent US20110038835A1, “ANILIDES AND ANALOGS AS RHO KINASE INHIBITORS” (The Scripps Research Institute, priority 2007, published 2011):
pIC50: −log10 of the molar value.

Key:
N2a cells = test: Neurite length assay (N2a cell assay); assay type: cell-based; details: Mus musculus, compound 1 h, neurite retraction induced by 5 uM LPA
Procedure: Neurite Length Assay (N2a, Cell Assay).
N2a cells are maintained in DMEM/FBS at 37 C and 5% CO2. For the experiment the cells were plated on a poly-D-lysine coated 96-well tissue culture plate. After attachment, cell differentiation was induced for 2 days by addition of 10 uM retinoic acid. Cells were treated for 1 h with a dilution of compounds in 0.3% DMSO final concentration before neurite retraction was induced by 5 uM LPA. Cells were stained for tubulin and nuclei and images were acquired on a INCell 1000 workstation. Images were analyzed using the developer toolbox and neurite length was quantitated.

A7r5 cells = test: Myosin light chain double phosphorylation assay (ppMLC cell assay); assay type: cell-based; details: inhibitor 1 h, 10 μM LPA for 10 min
Procedure: Myosin Light Chain Double Phosphorylation Assays (ppMLC Cell Assay).
A7r5 cells were plated at 5000 cells/well in a 96 well Packard View Plate (Perkin Elmer) in DMEM +10% FBS. After attachment overnight, cells were serum starved for 4 h and treated with inhibitor in 0.25% DMSO final concentration for 1 h at 37° C. Cells were then treated with 10 μM lysophosphatitic acid (LPA) for 10 min. Following treatment, cells were immediately fixed with 4% paraformaldehyde for 30 minutes. After a brief wash in 0.1 M glycine, cells were permeablized in 0.2% Triton X for 10 minutes. Cells were then washed once in PBS and blocked in Li-COR blocking buffer (Li-COR Biosciences) for 1 h at 25 C. Cells were probed for either phosphorylated myosin light chain 20 (55 ng/mL), total myosin light chain (525 ng/mL) or anti-bovine α-tubulin (1 μg/mL), and incubated overnight at 4° C. Following three washes, cells were probed with goat-anti-rabbit or goat-anti-mouse IR800 (2 μg/mL in LI-COR block +0.025% Tween) for 1 h at 25° C. Nuclei were stained with TO-PRO-3 iodide (642/661) (1:4000) for 20 min, washed twice in PBS/0.05% Tween and read with an Odyssey Infrared Imaging System (LI-COR Biosciences).

ROCK-II (1-543) = ROCK-II (1-543) (UniProt Q62868); test: Enzymatic Rho kinase assay (Kinase-Glo, S6-peptide phosphorylation); assay type: biochemical; details: 20 μM ATP, 20 μM S6-peptide, 50 min at RT
Procedure: Enzymatic Rho Kinase (ROCK I and ROCK II) Assays.
The assay is based on ability of Rhok2 to phosphorylate a specific peptide sequence derived from its substrate—ribosomal protein S6 (amino acid residues 229-239). Rhok2 uses ATP as a donor of phosphate for the phosphorylation of the substrate, which leads to the depletion of ATP in the reaction mix. An assay kit (“Kinase-Glo”, Promega) was used to quantify enzyme activity. Using this kit, residual amounts of ATP are measured by a secondary enzymatic reaction, through which luciferase utilizes the remaining ATP to produce luminescence. Luminescent signal is directly proportional to ATP concentration and inversely proportional to Rhok2 activity.
This dose response assay was conducted in 1536 well plate format. Each concentration was tested nominally in triplicate. Protocol Summary: A 5 μL mixture of a 20 μM S6-peptide (LCB-[…]-NH2) and 20 μM ATP in Kinase buffer (50 mM Hepes pH 7.3, 10 mM MgCl2, 0.1% BSA, and 2 mM DTT) was added to the well of a plate. 20 nL of 90% DMSO/10% water containing the compound(s) to be tested (or no compound for control wells) was added. The reaction was initiated by addition of 5 μL of 8 nM ROCK-II (1-543) in Kinase buffer. […] The plate was read after 10 min incubation time at RT on the Viewlux in luminescence mode.

CN(C)CCOc1cc(-c2cn[nH]c2)c(F)cc1NC(=O)[C@H](N)c1ccc(F)cc1 [Example 26, (R)-2-amino-N-(2-(2-(dimethylamino)ethoxy)-5-fluoro-4-(1H-pyrazol-4-yl)phenyl)-2-(4-fluorophenyl)acetamide]
pIC50 (N2a cells): 7.74
pIC50 (A7r5 cells): 6.96
pIC50 (ROCK-II (1-543)): 7.72
